“And” between values parts separate entries of the source, which are not always exact repeats. Identical values can stand only once. Like-named read-outs stand apart in the source and are kept apart here.
How the values were obtained:
Assay type in all cases: in vivo, human
[1] = Everolimus blood pharmacokinetics (24-h profile day 15, trough levels) in Chinese patients with advanced solid tumors; conditions: for Tmax / Cmax / AUC: human, whole blood; for Tmax: po, read-out: Tmax, median (range); for Cmax / AUC: n = 12, day 15, blood; for Cmax / AUC / Cmin (pre-dose trough concentration): mean (% coefficient of variation); for AUC: read-out: AUC0-τ; for CL/F, mean (± standard deviation): after reaching steady state; for Cmin (pre-dose trough concentration): n = 12, blood; for Time to steady-state levels: continuous daily dosing
Procedure: Blood samples for everolimus 24-h PK profile were collected on day 15 pre-dose and at 1, 2, 4, 6, 8, and 24 h post-dose; blood samples for everolimus trough concentration were collected pre-dose on days 2, 8, 16, and 22. Everolimus concentration was determined after liquid extraction by a liquid chromatography-mass spectroscopy method with lower limits of quantification for everolimus of 0.3 ng/mL. PK parameters of everolimus determined for each cohort included the maximum blood concentration (Cmax), minimum blood concentration (Cmin), time to maximum concentration (Tmax), area under the dosing curve (AUC0-τ), and total body apparent clearance of drug from the blood (CL/F). PK analyses were performed on all patients in the safety population with a sufficient number of evaluable blood samples.

[2] = Safety and tolerability: adverse events graded by NCI CTCAE v3.0; conditions: for Deaths during the study: considered unrelated to everolimus
Source text: Safety assessments included incidence, severity, and treatment relationship of adverse and serious adverse events and the regular monitoring of hematology, serum and urine chemistry, vital signs, and physical condition. Adverse events were graded according to the National Cancer Institute's Common Terminology Criteria for Adverse Events, version 3.0 [22]. The safety population consisted of all patients who received ≥1 dose of study drug and had ≥1 post-baseline safety assessment.

[3] = system: advanced solid tumors; assay: Tumor response and progression by RECIST; conditions: for Best overall tumor response stable disease, patients: n = 12; for Patients with stable disease: both cohorts, 6 patients per tumor type
Procedure: Tumor response and progression was assessed locally for all randomized patients using RECIST criteria. A computed tomography scan or magnetic resonance image of the chest, abdomen, and pelvis was performed at screening and every 2 months (±7 days) thereafter. Confirmatory imaging results ≥4 weeks after an initial observation were required for a positive assessment of complete or partial response.

[4] = Patient disposition at final analysis; conditions: n = 12
Procedure: Patients continued treatment until tumor progression, unacceptable toxicity, death, or discontinued if the investigator or patient felt it was in the patient's best interest to discontinue participation. Dose modifications were allowed in the event of adverse events grade ≥2. Specific nomograms were followed to manage patients who developed known toxicities of everolimus, such as non-infectious pneumonitis.
This final analysis was performed after all patients had received 6 months of study drug or had discontinued from the study.

[5] = 5 mg/day, n = 12, suspected relationship to everolimus
[6] = 10 mg/day, n = 12, suspected relationship to everolimus

SMILES: CO[C@H]1C[C@@H]2CC[C@@H](C)[C@@](O)(O2)C(=O)C(=O)N2CCCC[C@H]2C(=O)O[C@H]([C@H](C)C[C@@H]2CC[C@@H](OCCO)[C@H](OC)C2)CC(=O)[C@H](C)/C=C(\C)[C@@H](O)[C@@H](OC)C(=O)[C@H](C)C[C@H](C)/C=C/C=C/C=C/1C [Everolimus, everolimus]
- Cmin, Cmax and AUC0-τ with 10 mg/day relative to 5 mg/day ([1]; 10 mg/day versus 5 mg/day): approximately 2 fold
- Tmax ([1]; 5 mg/day, oral 5 mg/day, n = 12): 3 h
- Tmax ([1]; 10 mg/day, oral 10 mg/day, n = 12): 2 h
- Cmax ([1]; oral 5 mg/day): 28.8 ng/mL
- AUC ([1]; oral 5 mg/day): 316 ng·h/mL
- Cmax ([1]; oral 10 mg/day): 53.8 ng/mL
- AUC ([1]; oral 10 mg/day): 589 ng·h/mL
- CL/F, mean (± standard deviation) ([1]; oral 5 mg/day): 16.7 (±5.6) L/h
- Tmax, median (range) ([1]; oral 5 mg/day, n = 12): 2.96 (1.00-4.00) h
- Cmin (pre-dose trough concentration) ([1]; oral 5 mg/day): 8.3 (46.8) ng/mL
- CL/F, mean (± standard deviation) ([1]; oral 10 mg/day): 18.2 (±7.2) L/h
- Cmin (pre-dose trough concentration) ([1]; oral 10 mg/day): 14.5 (47.9) ng/mL
- Time at which maximum blood concentrations were generally reached ([1]; oral 5 and 10 mg/day): 2 to 4 h
- Time to steady-state levels ([1]; oral 5 and 10 mg/day): ≤ 8 days
- Time to steady-state levels ([1]; oral 5 and 10 mg/day, listed as everolimus): 8 days
- Fatigue suspected to be related to everolimus, patients ([2]; 5 mg/day cohort): 16.7%
- Hyperglycemia (increased blood glucose) suspected to be related to everolimus, patients ([2]; 5 mg/day cohort): 16.7%
- Patients with grade 3 adverse events suspected to be related to everolimus ([2]; 5 mg/day cohort): 25%
- Deaths during the study ([2]; 5 mg/day cohort): 1
- Adverse events with suspected relationship to everolimus: Total, All grades ([2]; 5 mg/day, n = 12): 12 (100) n (%)
- Adverse events with suspected relationship to everolimus: Total, Grade 3 ([2]; 5 mg/day, n = 12): 3 (25.0) n (%)
- Adverse events with suspected relationship to everolimus: Total, Grade 4 ([2]; 5 mg/day, n = 12): 0 n (%)
- Anemia, All grades [2, 5]: 1 (8.3) n (%)
- Anemia, Grade 3 [2, 5]: 1 (8.3) n (%)
- Anemia, Grade 4 [2, 5]: 0 n (%)
- Blood alkaline phosphatase increased, All grades [2, 5]: 1 (8.3) n (%)
- Blood alkaline phosphatase increased, Grade 3 [2, 5]: 0 n (%)
- Blood alkaline phosphatase increased, Grade 4 [2, 5]: 0 n (%)
- Fatigue, All grades [2, 5]: 2 (16.7) n (%)
- Fatigue, Grade 3 [2, 5]: 0 n (%)
- Fatigue, Grade 4 [2, 5]: 0 n (%)
- Hyperglycemia, All grades [2, 5]: 2 (16.7) n (%)
- Hyperglycemia, Grade 3 [2, 5]: 0 n (%)
- Hyperglycemia, Grade 4 [2, 5]: 0 n (%)
- Hypokalemia, All grades [2, 5]: 3 (25.0) n (%)
- Hypokalemia, Grade 3 [2, 5]: 1 (8.3) n (%)
- Hypokalemia, Grade 4 [2, 5]: 0 n (%)
- Thrombocytopenia, All grades [2, 5]: 2 (16.7) n (%)
- Thrombocytopenia, Grade 3 [2, 5]: 1 (8.3) n (%)
- Thrombocytopenia, Grade 4 [2, 5]: 0 n (%)
- Upper respiratory tract infection, All grades [2, 5]: 1 (8.3) n (%)
- Upper respiratory tract infection, Grade 3 [2, 5]: 1 (8.3) n (%)
- Fatigue suspected to be related to everolimus, patients ([2]; 10 mg/day cohort): 33.3%
- Hyperglycemia (increased blood glucose) suspected to be related to everolimus, patients ([2]; 10 mg/day cohort): 41.7%
- Patients with grade 3 adverse events suspected to be related to everolimus ([2]; 10 mg/day cohort): 25%
- Deaths during the study ([2]; 10 mg/day cohort): 2
- Adverse events with suspected relationship to everolimus: Total, All grades ([2]; 10 mg/day, n = 12): 12 (100) n (%)
- Adverse events with suspected relationship to everolimus: Total, Grade 3 ([2]; 10 mg/day, n = 12): 3 (25.0) n (%)
- Adverse events with suspected relationship to everolimus: Total, Grade 4 ([2]; 10 mg/day, n = 12): 0 n (%)
- Anemia, All grades [2, 6]: 3 (25.0) n (%)
- Anemia, Grade 3 [2, 6]: 0 n (%)
- Anemia, Grade 4 [2, 6]: 0 n (%)
- Blood alkaline phosphatase increased, All grades [2, 6]: 3 (25.0) n (%)
- Blood alkaline phosphatase increased, Grade 3 [2, 6]: 1 (8.3) n (%)
- Blood alkaline phosphatase increased, Grade 4 [2, 6]: 0 n (%)
- Fatigue, All grades [2, 6]: 4 (33.3) n (%)
- Fatigue, Grade 3 [2, 6]: 1 (8.3) n (%)
- Fatigue, Grade 4 [2, 6]: 0 n (%)
- Hyperglycemia, All grades [2, 6]: 5 (41.7) n (%)
- Hyperglycemia, Grade 3 [2, 6]: 1 (8.3) n (%)
- Hyperglycemia, Grade 4 [2, 6]: 0 n (%)
- Hypokalemia, All grades [2, 6]: 2 (16.7) n (%)
- Hypokalemia, Grade 3 [2, 6]: 0 n (%)
- Hypokalemia, Grade 4 [2, 6]: 0 n (%)
- Thrombocytopenia, All grades [2, 6]: 3 (25.0) n (%)
- Thrombocytopenia, Grade 3 [2, 6]: 0 n (%)
- Thrombocytopenia, Grade 4 [2, 6]: 0 n (%)
- Upper respiratory tract infection, All grades [2, 6]: 0 n (%)
- Upper respiratory tract infection, Grade 3 [2, 6]: 0 n (%)
- Upper respiratory tract infection, Grade 4 [2, 6]: 0 n (%)
- Noninfectious pneumonitis ([2]; 5 and 10 mg/day cohorts): not observed
- Tolerability ([2]; 5 or 10 mg/day, Chinese patients with advanced solid tumors): well tolerated
- Patients reporting ≥1 adverse event ([2]; both cohorts, 24 patients in total): 24 patients
- Grade 3 upper respiratory tract infection, patients ([2]; whole study, reversible with remedial treatment and interruption of everolimus): 1 patient
- Progressive disease as best overall response, patients ([3]; 5 mg/day cohort): 16.7%
- Best overall tumor response stable disease, patients ([3]; 5 mg/day cohort): 83% and 83.3%
- Median duration of stable disease ([3]; 5 mg/day cohort, 95% CI 2.89-8.05): 5.03 months
- Progressive disease as best overall response, patients ([3]; 10 mg/day cohort): 41.7%
- Best overall tumor response stable disease, patients ([3]; 10 mg/day cohort): 50%
- Median duration of stable disease ([3]; 10 mg/day cohort, 95% CI 3.58-not reached): 6.08 months
- Median duration of stable disease ([3]; 4 patients with RCC, at data cutoff, 95% CI 6.08-11.1+): not yet been reached
- Complete or partial responses ([3]; 5 and 10 mg/day cohorts, RECIST): No complete or partial responses
- Patients with stable disease ([3]; NSCLC): 4 patients
- Patients with stable disease ([3]; RCC): 4 patients
- Patients with stable disease ([3]; breast cancer): 3 patients
- Patients with stable disease ([3]; gastric cancer): 5 patients
- Discontinued: Death ([4]; 5 mg/day): 0 n (%)
- Discontinued: Disease progression ([4]; 5 mg/day): 9 (75.0) n (%)
- Discontinued: Death ([4]; 10 mg/day): 2 (16.7) n (%)
- Discontinued: Disease progression ([4]; 10 mg/day): 7 (58.3) n (%)
